± gives the expanded uncertainty stated by the source.
Conditions: Capillary rise

Q: With C=C(F)C(F)(F)F [2,3,3,3-tetrafluoro-1-propene] as the compound, how does the surface tension liquid-gas (242.21 K) read?
A: Its surface tension liquid-gas is 13.25 ± 0.21 mN/m.

Q: And the surface tension liquid-gas (244.21 K)?
A: The surface tension liquid-gas was 12.98 ± 0.21 mN/m.

Q: And the surface tension liquid-gas (245.22 K)?
A: The surface tension liquid-gas was 12.84 ± 0.21 mN/m.

Q: And the surface tension liquid-gas (248.08 K)?
A: The surface tension liquid-gas was 12.45 ± 0.21 mN/m.

Q: And the surface tension liquid-gas (250.1 K)?
A: Its surface tension liquid-gas is 12.18 ± 0.21 mN/m.

Q: What about the surface tension liquid-gas (252.25 K) of the same compound?
A: Its surface tension liquid-gas is 11.9 ± 0.21 mN/m.

Q: And the surface tension liquid-gas (255.34 K)?
A: The surface tension liquid-gas was 11.49 ± 0.21 mN/m.

Q: What about the surface tension liquid-gas (258.24 K) of the same compound?
A: Its surface tension liquid-gas is 11.11 ± 0.21 mN/m.

Q: And the surface tension liquid-gas (260.34 K)?
A: Its surface tension liquid-gas is 10.83 ± 0.2 mN/m.

Q: And the surface tension liquid-gas (263.12 K)?
A: Its surface tension liquid-gas is 10.47 ± 0.2 mN/m.

Q: And the surface tension liquid-gas (265.13 K)?
A: The surface tension liquid-gas was 10.21 ± 0.2 mN/m.

Q: What about the surface tension liquid-gas (268.11 K) of the same compound?
A: Its surface tension liquid-gas is 9.828 ± 0.2 mN/m.

Q: What about the surface tension liquid-gas (270.15 K) of the same compound?
A: The surface tension liquid-gas was 9.568 ± 0.2 mN/m.

Q: What about the surface tension liquid-gas (275.55 K) of the same compound?
A: Its surface tension liquid-gas is 8.889 ± 0.2 mN/m.

Q: And the surface tension liquid-gas (278.58 K)?
A: Its surface tension liquid-gas is 8.512 ± 0.2 mN/m.

Q: What about the surface tension liquid-gas (280.24 K) of the same compound?
A: Its surface tension liquid-gas is 8.307 ± 0.2 mN/m.

Q: What about the surface tension liquid-gas (283.24 K) of the same compound?
A: The surface tension liquid-gas was 7.94 ± 0.2 mN/m.

Q: And the surface tension liquid-gas (285.32 K)?
A: Its surface tension liquid-gas is 7.688 ± 0.2 mN/m.

Q: What about the surface tension liquid-gas (288 K) of the same compound?
A: Its surface tension liquid-gas is 7.364 ± 0.2 mN/m.

Q: What about the surface tension liquid-gas (290.08 K) of the same compound?
A: The surface tension liquid-gas was 7.117 ± 0.2 mN/m.

Q: And the surface tension liquid-gas (296.04 K)?
A: The surface tension liquid-gas was 6.415 ± 0.2 mN/m.

Q: And the surface tension liquid-gas (300.01 K)?
A: The surface tension liquid-gas was 5.956 ± 0.2 mN/m.

Q: And the surface tension liquid-gas (305.09 K)?
A: The surface tension liquid-gas was 5.382 ± 0.2 mN/m.

Q: What about the surface tension liquid-gas (310.09 K) of the same compound?
A: The surface tension liquid-gas was 4.829 ± 0.2 mN/m.

Q: What about the surface tension liquid-gas (312.28 K) of the same compound?
A: The surface tension liquid-gas was 4.591 ± 0.2 mN/m.

Q: And the surface tension liquid-gas (315.2 K)?
A: Its surface tension liquid-gas is 4.279 ± 0.2 mN/m.

Q: What about the surface tension liquid-gas (317.48 K) of the same compound?
A: The surface tension liquid-gas was 4.038 ± 0.2 mN/m.

Q: What about the surface tension liquid-gas (320.48 K) of the same compound?
A: The surface tension liquid-gas was 3.726 ± 0.2 mN/m.

Q: And the surface tension liquid-gas (322.47 K)?
A: The surface tension liquid-gas was 3.523 ± 0.2 mN/m.

Q: What about the surface tension liquid-gas (325.1 K) of the same compound?
A: The surface tension liquid-gas was 3.259 ± 0.2 mN/m.

Q: And the surface tension liquid-gas (327.3 K)?
A: Its surface tension liquid-gas is 3.041 ± 0.2 mN/m.

Q: What about the surface tension liquid-gas (330.27 K) of the same compound?
A: The surface tension liquid-gas was 2.752 ± 0.2 mN/m.

Q: And the surface tension liquid-gas (332.21 K)?
A: Its surface tension liquid-gas is 2.568 ± 0.2 mN/m.

Q: And the surface tension liquid-gas (335.26 K)?
A: Its surface tension liquid-gas is 2.284 ± 0.2 mN/m.

Q: What about the surface tension liquid-gas (337.53 K) of the same compound?
A: The surface tension liquid-gas was 2.077 ± 0.2 mN/m.

Q: And the surface tension liquid-gas (340.11 K)?
A: The surface tension liquid-gas was 1.85 ± 0.2 mN/m.

Q: And the surface tension liquid-gas (342.54 K)?
A: The surface tension liquid-gas was 1.64 ± 0.2 mN/m.

Q: What about the surface tension liquid-gas (345.13 K) of the same compound?
A: Its surface tension liquid-gas is 1.425 ± 0.2 mN/m.

Q: What about the surface tension liquid-gas (347.36 K) of the same compound?
A: Its surface tension liquid-gas is 1.244 ± 0.2 mN/m.

Q: What about the surface tension liquid-gas (350.21 K) of the same compound?
A: The surface tension liquid-gas was 1.023 ± 0.2 mN/m.

Q: And the surface tension liquid-gas (355.63 K)?
A: Its surface tension liquid-gas is 0.637 ± 0.2 mN/m.

Q: And the surface tension liquid-gas (360.23 K)?
A: Its surface tension liquid-gas is 0.349 mN/m.

Q: What about the surface tension liquid-gas (362.34 K) of the same compound?
A: Its surface tension liquid-gas is 0.234 mN/m.

Q: What about the surface tension liquid-gas (365 K) of the same compound?
A: The surface tension liquid-gas was 0.108 mN/m.

Q: What does the source list for F/C=C/C(F)(F)F [trans-1,3,3,3-tetrafluoropropene]?
A: surface tension liquid-gas (242.01 K): 15.66 ± 0.21 mN/m; surface tension liquid-gas (245.14 K): 15.23 ± 0.21 mN/m; surface tension liquid-gas (248.08 K): 14.82 ± 0.21 mN/m; surface tension liquid-gas (250.11 K): 14.54 ± 0.21 mN/m; surface tension liquid-gas (255.11 K): 13.85 ± 0.21 mN/m; surface tension liquid-gas (260.07 K): 13.18 ± 0.21 mN/m; surface tension liquid-gas (265.12 K): 12.51 ± 0.21 mN/m; surface tension liquid-gas (268.98 K): 12 ± 0.21 mN/m; surface tension liquid-gas (271.51 K): 11.67 ± 0.21 mN/m; surface tension liquid-gas (275.65 K): 11.13 ± 0.21 mN/m; surface tension liquid-gas (280.14 K): 10.55 ± 0.2 mN/m; surface tension liquid-gas (285.03 K): 9.923 ± 0.2 mN/m; surface tension liquid-gas (288.19 K): 9.525 ± 0.2 mN/m; surface tension liquid-gas (290.19 K): 9.275 ± 0.2 mN/m; surface tension liquid-gas (293.1 K): 8.913 ± 0.2 mN/m; surface tension liquid-gas (295.07 K): 8.67 ± 0.2 mN/m; surface tension liquid-gas (300.07 K): 8.059 ± 0.2 mN/m; surface tension liquid-gas (305.06 K): 7.46 ± 0.2 mN/m; surface tension liquid-gas (310.06 K): 6.873 ± 0.2 mN/m; surface tension liquid-gas (315.05 K): 6.304 ± 0.2 mN/m; surface tension liquid-gas (320.05 K): 5.724 ± 0.2 mN/m; surface tension liquid-gas (325.03 K): 5.171 ± 0.2 mN/m; surface tension liquid-gas (330.05 K): 4.621 ± 0.2 mN/m; surface tension liquid-gas (335.09 K): 4.087 ± 0.2 mN/m; surface tension liquid-gas (340.08 K): 3.565 ± 0.2 mN/m; surface tension liquid-gas (345.07 K): 3.094 ± 0.2 mN/m; surface tension liquid-gas (350.07 K): 2.589 ± 0.2 mN/m; surface tension liquid-gas (355.03 K): 2.132 ± 0.2 mN/m; surface tension liquid-gas (360.08 K): 1.605 ± 0.2 mN/m; surface tension liquid-gas (365.09 K): 1.171 ± 0.2 mN/m; surface tension liquid-gas (370.07 K): 0.761 ± 0.2 mN/m; surface tension liquid-gas (375.14 K): 0.395 mN/m; surface tension liquid-gas (380.09 K): 0.109 mN/m

Q: Which surface tension liquid-gas (280.34 K) does the source give for CC(C)C [2-methylpropane] here?
A: The surface tension liquid-gas was 11.99 ± 0.21 mN/m.

Q: What about the surface tension liquid-gas (283.22 K) of the same compound?
A: The surface tension liquid-gas was 11.79 ± 0.21 mN/m.

Q: And the surface tension liquid-gas (285.45 K)?
A: Its surface tension liquid-gas is 11.48 ± 0.21 mN/m.

Q: What about the surface tension liquid-gas (288.02 K) of the same compound?
A: Its surface tension liquid-gas is 11.17 ± 0.21 mN/m.

Q: What about the surface tension liquid-gas (290.14 K) of the same compound?
A: Its surface tension liquid-gas is 10.99 ± 0.2 mN/m.

Q: What about the surface tension liquid-gas (293.53 K) of the same compound?
A: Its surface tension liquid-gas is 10.6 ± 0.2 mN/m.

Q: What about the surface tension liquid-gas (296.42 K) of the same compound?
A: The surface tension liquid-gas was 10.23 ± 0.2 mN/m.

Q: And the surface tension liquid-gas (299.37 K)?
A: The surface tension liquid-gas was 9.829 ± 0.2 mN/m.

Q: What about the surface tension liquid-gas (302.08 K) of the same compound?
A: The surface tension liquid-gas was 9.595 ± 0.2 mN/m.

Q: What about the surface tension liquid-gas (305.41 K) of the same compound?
A: Its surface tension liquid-gas is 9.223 ± 0.2 mN/m.

Q: What about the surface tension liquid-gas (307.43 K) of the same compound?
A: Its surface tension liquid-gas is 9.03 ± 0.2 mN/m.

Q: And the surface tension liquid-gas (310.75 K)?
A: Its surface tension liquid-gas is 8.607 ± 0.2 mN/m.

Q: And the surface tension liquid-gas (313.15 K)?
A: The surface tension liquid-gas was 8.314 ± 0.2 mN/m.

Q: What about the surface tension liquid-gas (315.62 K) of the same compound?
A: The surface tension liquid-gas was 7.999 ± 0.2 mN/m.

Q: What about the surface tension liquid-gas (318.22 K) of the same compound?
A: Its surface tension liquid-gas is 7.683 ± 0.2 mN/m.

Q: And the surface tension liquid-gas (320.46 K)?
A: The surface tension liquid-gas was 7.584 ± 0.2 mN/m.

Q: And the surface tension liquid-gas (323.41 K)?
A: Its surface tension liquid-gas is 7.172 ± 0.2 mN/m.

Q: What about the surface tension liquid-gas (325.44 K) of the same compound?
A: Its surface tension liquid-gas is 7.013 ± 0.2 mN/m.

Q: What about the surface tension liquid-gas (327.83 K) of the same compound?
A: The surface tension liquid-gas was 6.731 ± 0.2 mN/m.

Q: And the surface tension liquid-gas (329.85 K)?
A: Its surface tension liquid-gas is 6.538 ± 0.2 mN/m.

Q: And the surface tension liquid-gas (330.18 K)?
A: The surface tension liquid-gas was 6.476 ± 0.2 mN/m.

Q: What about the surface tension liquid-gas (332.56 K) of the same compound?
A: Its surface tension liquid-gas is 6.214 ± 0.2 mN/m.

Q: What about the surface tension liquid-gas (335.58 K) of the same compound?
A: Its surface tension liquid-gas is 5.925 ± 0.2 mN/m.

Q: And the surface tension liquid-gas (338.1 K)?
A: Its surface tension liquid-gas is 5.686 ± 0.2 mN/m.

Q: And the surface tension liquid-gas (340.42 K)?
A: The surface tension liquid-gas was 5.479 ± 0.2 mN/m.

Q: And the surface tension liquid-gas (342.74 K)?
A: The surface tension liquid-gas was 5.22 ± 0.2 mN/m.

Q: What about the surface tension liquid-gas (345.39 K) of the same compound?
A: The surface tension liquid-gas was 4.972 ± 0.2 mN/m.

Q: What about the surface tension liquid-gas (347.26 K) of the same compound?
A: The surface tension liquid-gas was 4.847 ± 0.2 mN/m.

Q: And the surface tension liquid-gas (350.12 K)?
A: The surface tension liquid-gas was 4.526 ± 0.2 mN/m.

Reference: the NIST ThermoML archive (doi:10.1021/acs.jced.7b00543)
